From patent US20100173835A1, “Peptides for Treatment of Obesity” (Novo Nordisk A/S, priority 2008, published 2010)
In brackets after ≈: the same amount, converted by molar mass. Like-named read-outs stand apart in the source and are kept apart here. Where a SMILES comes first, the peptide text is derived from it. Bridges are numbered along the chain shown (N, C = ends). [ ]: non-standard residue; d: D form. The star is where a group is joined. Palmitoyl(16-(5-tetrazolyl)) = O=C(CCCCCCCCCCCCCCCc1nnn[nH]1)*; Lys(CH2CO2H)2 = N[C@@H](CCCCN(CC(=O)O)CC(=O)O)C(=O)O; Hyp = O=C(O)[C@@H]1C[C@@H](O)CN1; NTA = O=C(O)CN(CC(=O)O)CC(=O)*; Nle = CCCC[C@H](N)C(=O)O; Dap = NC[C@H](N)C(=O)O; AEEA = NCCOCCOCC(=O)O; βAla = NCCC(=O)O

Key:
[1] = target: T1, MC1 receptor (Homo sapiens, UniProt Q01726); assay: Assay (IV) Melanocortin Receptor 1 (MC1) binding assay
T1 construct: expressed in transfected cells
T1 sequence (Q01726 whole entry): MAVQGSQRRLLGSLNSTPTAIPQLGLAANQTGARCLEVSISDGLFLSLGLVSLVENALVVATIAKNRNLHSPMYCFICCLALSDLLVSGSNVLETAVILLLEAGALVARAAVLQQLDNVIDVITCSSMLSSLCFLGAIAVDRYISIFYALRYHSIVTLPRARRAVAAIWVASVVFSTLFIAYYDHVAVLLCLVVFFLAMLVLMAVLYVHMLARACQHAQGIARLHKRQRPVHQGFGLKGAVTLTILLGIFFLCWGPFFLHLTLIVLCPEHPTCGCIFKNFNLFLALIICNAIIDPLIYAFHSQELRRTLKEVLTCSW
Summary of the method: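 Competition binding used BHK cell membranes stably expressing MC1 (25 μg/ml) with 22 pM final ^125NDP-α-MSH in 25 mM HEPES pH 7.4, CaCl2, MgSO4, EDTA, 0.1% HSA (or ovalbumin), 0.005% Tween 20. After 90 min at 30° C., bound radioligand was filtered and counted, with binding curves fitted by non-linear regression.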

[2] = Solubility data of compounds in water over the pH range; type: physicochemical; conditions: read-out: Conc (solubility in water)
[3] = target: T2, human MC4 receptor (Homo sapiens, UniProt P32245); assay: Assay (V) Melanocortin Receptor 4 (MC4) binding assay; conditions: 125NDP-α-MSH binding, BHK cell membranes
T2 construct: expressed in transfected cells
T2 sequence (P32245 whole entry): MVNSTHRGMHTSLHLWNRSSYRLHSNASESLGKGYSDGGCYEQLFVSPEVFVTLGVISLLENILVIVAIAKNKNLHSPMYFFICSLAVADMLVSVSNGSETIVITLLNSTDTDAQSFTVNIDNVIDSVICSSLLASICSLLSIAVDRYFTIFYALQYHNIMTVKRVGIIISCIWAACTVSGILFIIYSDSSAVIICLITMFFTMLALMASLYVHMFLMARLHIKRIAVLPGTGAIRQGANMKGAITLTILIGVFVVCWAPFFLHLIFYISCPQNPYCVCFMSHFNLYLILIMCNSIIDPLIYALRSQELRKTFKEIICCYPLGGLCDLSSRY
Summary of the method: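 BHK membranes stably expressing human MC4 receptor were incubated with ^125NDP-α-MSH (≈79 pM final) and compound for 2 h at 25 °C, pH 7.0 HEPES buffer with HSA or ovalbumin. Filter-bound radioactivity was gamma counted. Binding curves were fitted by non-linear regression.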

[4] = system: ad libitum fed rat model; assay: Assay (I) efficacy testing on appetite, ad libitum fed rat model; type: in vivo
Protocol: Assay (I)—Experimental protocol for efficacy testing on appetite with MC4 analogues, using an ad libitum fed rat model. TAC:SPRD @mol rats or Wistar rats from M&B Breeding and Research Centre A/S, Denmark are used for the experiments. The rats have a body weight 200-250 g at the start of experiment. The rats arrive at least 10-14 days before start of experiment with a body weight of 180-200 g. Each dose of compound is tested in a group of 8 rats. […] When the animals arrive they are housed individually in a reversed light/dark phase (lights off 7:30 am, lights on 7:30 pm), meaning that lights are off during daytime and on during nighttime. […] During this period the animals are handled at least 3 times. The experiment is conducted in the rats' home cages. Immediately before dosing the rats are randomised to the various treatment groups (n 8) by body weight. They are dosed according to body weight at between 7:00 am and 7:45 am, with a 1-3 mg/kg solution administered intraperitoneally (ip), orally (po) or subcutaneously (sc). The time of dosing is recorded for each group. After dosing, the rats are returned to their home cages, where they then have access to food and water. […] At the end of the experimental session, the animals are euthanised. The individual data are recorded in Microsoft excel sheets. Outliers are excluded after applying the Grubbs statistical evaluation test for outliers, and the result is presented graphically using the GraphPad Prism program.

[5] = 125NDP-α-MSH binding, BHK cell membranes, read-out: Assay (IV) MC1 Ki

## CCCC[C@H](NC(=O)[C@H](CCCCN(CC(=O)O)CC(=O)O)NC(=O)CCNC(=O)[C@H](Cc1c[nH]cn1)NC(=O)[C@H](CCC(N)=O)NC(=O)[C@H](CO)NC(=O)[C@H](CO)NC(=O)[C@H](CCC(N)=O)NC(=O)[C@@H](CO)NC(=O)CNC(=O)COCCOCCNC(=O)COCCOCCNC(=O)CCCCCCCCCCCCCCCc1nnn[nH]1)C(=O)N[C@H]1CCC(=O)NCCCC[C@@H](C(N)=O)NC(=O)[C@H](Cc2c[nH]c3ccccc23)NC(=O)[C@H](CCCNC(=N)N)NC(=O)[C@@H](Cc2ccccc2)NC(=O)[C@@H]2C[C@@H](O)CN2C1=O [Example 20, (2-{2-[2-(2-{2-[16-(Tetrazol-5-yl)hexadecanoylamino]ethoxy}ethoxy)acetylamino]ethoxy}ethoxy)acetyl-Gly-D-Ser-Gln-Ser-Ser-Gln-His-β-Ala-Lys(biscarboxymethyl)-Nle-c[Glu-Hyp-D-Phe-Arg-Trp-Lys]-NH2] ({Palmitoyl(16-(5-tetrazolyl))-AEEA-AEEA}-G[dS]QSSQH[βAla][Lys(CH2CO2H)2][Nle]E[Hyp][dF]RWK-NH2; lactam 11-16)
[1]
  Ki: > 10000 nM
[2]; pH 2.94, pH 2.94
  solubility at 3 days: 499 µM (≈ 1300 µg/mL)
[2]; pH 4.37, pH 4.37
  solubility at 3 days: 512 µM (≈ 1330 µg/mL)
[2]; pH 4.97, pH 4.97
  solubility at 3 days: 406 µM (≈ 1050 µg/mL)
[2]; pH 5.4, pH 5.40
  solubility at 3 days: 67 µM (≈ 174 µg/mL)
[2]; pH 5.51, pH 5.51
  solubility at 3 days: 56 µM (≈ 145 µg/mL)
[2]; pH 6.23, pH 6.23
  solubility at 3 days: 53 µM (≈ 138 µg/mL)
[2]; pH 6.91, pH 6.91
  solubility at 3 days: 223 µM (≈ 579 µg/mL)
[2]; pH 6.99
  solubility at 3 days: 345 µM (≈ 896 µg/mL)
[2]; pH 7.23, pH 7.23
  solubility at 3 days: 473 µM (≈ 1230 µg/mL)
[2]; pH 7.55, pH 7.55
  solubility at 3 days: 452 µM (≈ 1170 µg/mL)
[3]; Assay (V) MC4 [Ki] (nM)
  Ki: 4.55 nM
[4]; dosing 1 mg/kg, 1 mg/kg
  Food consumption (% of vehicle) 24 h: 61 % of vehicle
  Food consumption (% of vehicle) 48 h: 72 % of vehicle

## CCCC[C@H](NC(=O)[C@H](CCCCN(CC(=O)O)CC(=O)O)NC(=O)[C@H](CO)NC(=O)[C@H](CCC(N)=O)NC(=O)[C@H](CO)NC(=O)CNC(=O)COCCOCCNC(=O)CCCCCCCCCCCCCCCc1nnn[nH]1)C(=O)N[C@H]1CCC(=O)NCCCC[C@@H](C(N)=O)NC(=O)[C@H](Cc2c[nH]c3ccccc23)NC(=O)[C@H](CCCNC(=N)N)NC(=O)[C@@H](Cc2ccccc2)NC(=O)[C@@H]2C[C@@H](O)CN2C1=O [Example 5, (2-{2-[16-(Tetrazol-5-yl)hexadecanoylamino]ethoxy}ethoxy)acetyl-Gly-Ser-Gln-Ser-Lys(biscarboxymethyl)-Nle-c[Glu-Hyp-D-Phe-Arg-Trp-Lys]-NH2] ({Palmitoyl(16-(5-tetrazolyl))-AEEA}-GSQS[Lys(CH2CO2H)2][Nle]E[Hyp][dF]RWK-NH2; lactam 7-12)
[1]
  Ki: > 10000 nM
[2]; pH 4.22, pH 4.22
  solubility at 3 days: 20 µM (≈ 40.5 µg/mL)
[2]; pH 4.55, pH 4.55
  solubility at 3 days: 21 µM (≈ 42.6 µg/mL)
[2]; pH 5.1, pH 5.10
  solubility at 3 days: 25 µM (≈ 50.7 µg/mL)
[2]; pH 5.23, pH 5.23
  solubility at 3 days: 30 µM (≈ 60.8 µg/mL)
[2]; pH 5.97, pH 5.97
  solubility at 3 days: 129 µM (≈ 262 µg/mL)
[2]; pH 6.29, pH 6.29
  solubility at 3 days: 239 µM (≈ 485 µg/mL)
[2]; pH 6.68, pH 6.68
  solubility at 3 days: 244 µM (≈ 495 µg/mL)
[2]; pH 7.03, pH 7.03
  solubility at 3 days: 245 µM (≈ 497 µg/mL)
[2]; pH 7.04, pH 7.04
  solubility at 3 days: 251 µM (≈ 509 µg/mL)
[3]; Assay (V) MC4 [Ki] (nM)
  Ki: 7.55 nM
[4]; dosing 1 mg/kg
  Food consumption (% of vehicle) 24 h: 81 % of vehicle
  Food consumption (% of vehicle) 48 h: 91 % of vehicle

## CCCC[C@H](NC(=O)[C@H](CCCCNC(=O)CN(CC(=O)O)CC(=O)O)NC(=O)[C@H](CO)NC(=O)[C@H](CCC(N)=O)NC(=O)[C@H](CO)NC(=O)CNC(=O)COCCOCCNC(=O)CCCCCCCCCCCCCCCc1nnn[nH]1)C(=O)N[C@H]1CCC(=O)NCCCC[C@@H](C(N)=O)NC(=O)[C@H](Cc2c[nH]c3ccccc23)NC(=O)[C@H](CCCNC(=N)N)NC(=O)[C@@H](Cc2ccccc2)NC(=O)[C@@H]2C[C@@H](O)CN2C1=O [Example 15, (2-{2-[16-(Tetrazol-5-yl)hexadecanoylamino]ethoxy}ethoxy)acetyl-Gly-Ser-Gln-Ser-Lys(BCMA)-Nle-c[Glu-Hyp-D-Phe-Arg-Trp-Lys]-NH2] ({Palmitoyl(16-(5-tetrazolyl))-AEEA}-GSQSK(NTA)[Nle]E[Hyp][dF]RWK-NH2; lactam 7-12)
[1]; [5]
  Ki: > 10000 nM
[3]; read-out: Assay (V) MC4 [Ki]
  Ki: 3.15 nM
[4]; dosing 1 mg/kg
  Food consumption (% of vehicle) 24 h: 74 % of vehicle
  Food consumption (% of vehicle) 48 h: 85 % of vehicle

## CCCC[C@H](NC(=O)[C@H](CCCCNC(=O)CN(CC(=O)O)CC(=O)O)NC(=O)[C@H](Cc1c[nH]cn1)NC(=O)[C@H](CCC(N)=O)NC(=O)[C@H](CO)NC(=O)CNC(=O)COCCOCCNC(=O)CCCCCCCCCCCCCCCc1nnn[nH]1)C(=O)N[C@H]1CCC(=O)NCCCC[C@@H](C(N)=O)NC(=O)[C@H](Cc2c[nH]c3ccccc23)NC(=O)[C@H](CCCNC(=N)N)NC(=O)[C@@H](Cc2ccccc2)NC(=O)[C@@H]2C[C@@H](O)CN2C1=O [Example 1, (2-{2-[16-(Tetrazol-5-yl)hexadecanoylamino]ethoxy}ethoxy)acetyl-Gly-Ser-Gln-His-Lys(BCMA)-Nle-c[Glu-Hyp-D-Phe-Arg-Trp-Lys]-NH2] ({Palmitoyl(16-(5-tetrazolyl))-AEEA}-GSQHK(NTA)[Nle]E[Hyp][dF]RWK-NH2; lactam 7-12)
[1]; [5]
  Ki: > 10000 nM
[3]; read-out: Assay (V) MC4 [Ki]
  Ki: 0.4 nM
[4]; dosing 3 mg/kg
  Food consumption (% of vehicle) 24 h: 65 % of vehicle
  Food consumption (% of vehicle) 48 h: 72 % of vehicle

## CCCC[C@H](NC(=O)[C@H](CNC(=O)CN(CC(=O)O)CC(=O)O)NC(=O)[C@H](Cc1c[nH]cn1)NC(=O)[C@H](CCC(N)=O)NC(=O)[C@H](CO)NC(=O)[C@H](CCC(=O)O)NC(=O)COCCOCCNC(=O)CCCCCCCCCCCCCCCc1nnn[nH]1)C(=O)N[C@H]1CCC(=O)NCCCC[C@@H](C(N)=O)NC(=O)[C@H](Cc2c[nH]c3ccccc23)NC(=O)[C@H](CCCNC(=N)N)NC(=O)[C@@H](Cc2ccccc2)NC(=O)[C@@H]2C[C@@H](O)CN2C1=O [Example 17, (2-{2-[16-(Tetrazol-5-yl)hexadecanoylamino]ethoxy}ethoxy)acetyl-Glu-Ser-Gln-His-Dap(BCMA)-Nle-c[Glu-Hyp-D-Phe-Arg-Trp-Lys]-NH2] ({Palmitoyl(16-(5-tetrazolyl))-AEEA}-ESQH[Dap](NTA)[Nle]E[Hyp][dF]RWK-NH2; lactam 7-12)
[1]; [5]
  Ki: > 10000 nM
[2]; pH 3.32, pH 3.32
  solubility at 3 days: 34 µM (≈ 73.6 µg/mL)
[2]; pH 3.76, pH 3.76
  solubility at 3 days: 25 µM (≈ 54.1 µg/mL)
[2]; pH 4.31, pH 4.31
  solubility at 3 days: 20 µM (≈ 43.3 µg/mL)
[2]; pH 4.56, pH 4.56
  solubility at 3 days: 20 µM (≈ 43.3 µg/mL)
[2]; pH 4.94, pH 4.94
  solubility at 3 days: 23 µM (≈ 49.8 µg/mL)
[2]; pH 5.55, pH 5.55
  solubility at 3 days: 39 µM (≈ 84.4 µg/mL)
[2]; pH 6.04, pH 6.04
  solubility at 3 days: 127 µM (≈ 275 µg/mL)
[2]; pH 6.34, pH 6.34
  solubility at 3 days: 226 µM (≈ 489 µg/mL)
[2]; pH 6.89, pH 6.89
  solubility at 3 days: 303 µM (≈ 656 µg/mL)
[2]; pH 7.62, pH 7.62
  solubility at 3 days: 351 µM (≈ 760 µg/mL)
[3]; read-out: Assay (V) MC4 [Ki]
  Ki: 5.4 nM
